# Laboratory results: patent EP0346759A2, “Cholestadiene derivatives, process for their preparation, and their use as medicines with a HMG-CoA reductase-inhibiting activity” (HOECHST AKTIENGESELLSCHAFT, priority 1988, dated 1989)
# System: Cholesterin-Biosynthese
# Assay: Inhibition of cholesterol biosynthesis in cell culture by 14C-precursor (14C sodium acetate) incorporation into cholesterol
# Assay type: cell-based
# Details: HEP-G2-Zellen, 1 % DMSO
# Source text: Prüfung auf Cholesterin-Biosynthese-Hemmung In Zellkulturen durch ^14C-Präkursoreinbau In Cholesterin.
# Monolayers von HEP G2-Zellen in lipoproteinfreiem Nährmedium wurden mit entsprechenden Konzentrationen der Prüfsubstanzen 1 Stunde vorinkubiert; nach Zugabe des ^14C-markierten Präkursors '^4C-Natriumacetat wurde die Inkubation für 3 Stunden fortgesetzt. Danach wurde ein Teil der Zellen bei vorheriger Zugabe eines internen Standards von ^3H-Cholesterin alkalisch verseift. Die Lipide der verseiften Zellen wurden mit Chloroform-Methanol extrahiert. Dieses Lipidgemisch wurde nach Zusatz von Träger-Cholesterin präparativ dünnschichtchromatographisch getrennt, die Cholesterin-Bande nach dem Sichtbarmachen mit Jod-Dämpfen isoliert und die aus dem ^14C-Präkursor gebildete Menge ^14C-Cholesterins szintigraphisch bestimmt. In einem aliquoten Teil der Zellen wurde Zellprotein bestimmt, sodaß die in der Zeiteinheit/mg Zellprotein aus ^14C-Präkursor gebildete Menge ^14C-Cholesterins berechnet werden kann. Zum Vergleich für die Hemmwirkung eines zugesetzten Prüfpräparates diente die Lösungsmittelkontrolle, sodaß direkt die Hemmung der Cholesterin-Biosynthese bei einer bestimmten molaren Konzentration des Prüfpräparates im Medium angegeben werden kann. In aliquoten Anteilen der Zellkultur wurde die Intaktheit der Zellkulturen und die fehlende Zellschädigung durch Präparate-Einwirkung morphologisch (Lichtmikroskop) beurteilt.
# Cholesterol-Biosynthese-Hemmung Zellkultur: HEP-G2-Zellen Lösungsmittel-Endkonzentration: 1 % DMSO
substance,measurement,setting,value
"3ß-Hydroxy-chola-5,23t-dien-24-carbonsäure-methylester [Beispiel 9]",IC50,Cholesterol-Biosynthese-Hemmung,~500 nM
same,Acetateinbau in Cholesterin im Vergleich zur Kontrolle,"Präparat-Konzentration 1,0 x 10^-6 Mol/1, 1 µM",52%
same,Acetateinbau in Cholesterin im Vergleich zur Kontrolle,"Präparat-Konzentration 1,0 x 10^-7 Mol/1, 0.1 µM",56%
same,Acetateinbau in Cholesterin im Vergleich zur Kontrolle,"Präparat-Konzentration 2,5 x 10^-4 Mol/1, 250 µM",6%
same,Acetateinbau in Cholesterin im Vergleich zur Kontrolle,"Präparat-Konzentration 2,5 x 10^-5 Mol/1, 25 µM",17%
